Test results from US20120214840A1, “INDOLIZINE INHIBITORS OF 5-LIPOXYGENASE” (PANMIRA PHARMACEUTICALS, LLC, priority 2009, published 2012).

system: LTB4 in human leukocytes; assay: Human Leukocyte LTB4 Inhibition Assay; type: cell-based; details: Leukocyte, 0.5 h; human leukocytes stimulated with calcium ionophore, 30 minutes at 37° C., LTB4 by ELISA; read-out: LTB4 HLA IC50
Experimental: A non-limiting example of a human leukocyte inhibition assay is as follows: Blood was drawn from consenting human volunteers into heparanized tubes and 3% dextran 0.9% saline ⅓ rd volume added. After sedimentation of red blood cells a hypotonic lysis of remaining red blood cells was performed and leukocytes sedimented at 1200 rpm. The pellet was resuspended at 1.25×10^5 cells/ml and aliquoted into wells containing 1 μL 100% DMSO (vehicle) or 2.5 μL drug in 100% DMSO. Samples were incubated for 5 minutes at 37° C. and 2 μL calcium ionophore […] (from a 50 mM DMSO stock diluted just prior to the assay in Hanks balanced salt solution (Invitrogen)) to 1.25 mM) was added, solutions mixed and incubated for 30 minutes at 37° C. Samples were centrifuged at 1,200 rpm (˜200×g) for 10 minutes at 4° C., plasma removed and a 1:4 dilution assayed for LTB4 concentration using ELISA (Assay Designs). Drug concentrations to achieve 50% inhibition (IC50's) of vehicle LTB4 were determined by nonlinear regression (Graphpad Prism) of % inhibition versus log drug concentration.

| SMILES | IC50 |
| --- | --- |
| CCC(O)(c1cn(Cc2ccc3c(C(C)C)c(C(N)=O)cn3c2)nn1)C(F)(F)F (centres unmarked) [Compound 1-9, 6-[4-(1-Hydroxy-1-trifluoromethyl-propyl)-[1,2,3]triazol-1-ylmethyl]-1-isopropyl-indolizine-2-carboxylic acid amide] | > 1000 nM |
| CCOC(=O)c1cn2cc(CNc3nnc(C(O)(CC)C(F)(F)F)o3)ccc2c1-c1ccc(F)cc1 (centres unmarked) [Compound 1-4, 1-(4-Fluoro-phenyl)-6-{[5-(1-hydroxy-1-trifluoromethyl-propyl)-[1,3,4]oxadiazol-2-ylamino]-methyl}-indolizine-2-carboxylic acid ethyl ester] | < 300 nM |
| CCC(O)(c1cn(Cc2ccc3c(-c4ccc(F)cc4)c(C#N)cn3c2)nn1)C(F)(F)F (centres unmarked) [Compound 1-3, 1-(4-Fluoro-phenyl)-6-[4-(1-hydroxy-1-trifluoromethyl-propyl)-[1,2,3]triazol-1-ylmethyl]-indolizine-2-carbonitrile] | < 300 nM |
| CCC(O)(c1cn(Cc2ccc3c(C(C)C)c(C#N)cn3c2)nn1)C(F)(F)F (centres unmarked) [Compound 1-10, 6-[4-(1-Hydroxy-1-trifluoromethyl-propyl)-[1,2,3]triazol-1-ylmethyl]-1-isopropyl-indolizine-2-carbonitrile] | < 300 nM |
| C=C(C)c1c(C(=O)OCC)cn2cc(Cn3cc(C(O)(CC)C(F)(F)F)nn3)ccc12 (centres unmarked) [Compound 1-7, 6-[4-(1-Hydroxy-1-trifluoromethyl-propyl)-[1,2,3]triazol-1-ylmethyl]-1-isopropenyl-indolizine-2-carboxylic acid ethyl ester] | < 300 nM |

The remaining lines, values ahead:

| IC50 | SMILES |
| --- | --- |
| < 300 nM | CCC(O)(c1cn(Cc2ccc3c(-c4ccc(F)cc4)c(C#N)nn3c2)nn1)C(F)(F)F (centres unmarked) [Compound 1-11, 3-(4-Fluoro-phenyl)-6-[4-(1-hydroxy-1-trifluoromethyl-propyl)-[1,2,3]triazol-1-ylmethyl]-pyrazolo[1,5-a]pyridine-2-carbonitrile] |
| < 300 nM | CCC(O)(c1cn(Cc2ccc3c(-c4ccc(F)cc4)c(C(N)=O)nn3c2)nn1)C(F)(F)F (centres unmarked) [Compound 1-12, 3-(4-Fluoro-phenyl)-6-[4-(1-hydroxy-1-trifluoromethyl-propyl)-[1,2,3]-triazol-1-ylmethyl]-pyrazolo[1,5-a]pyridine-2-carboxylic acid amide] |
| < 300 nM | CCC(O)(c1cn(Cc2ccc3c(-c4ccc(OC)nc4)c(C(N)=O)cn3c2)nn1)C(F)(F)F (centres unmarked) [Compound 1-14, 6-[4-(1-Hydroxy-1-trifluoromethyl-propyl)-[1,2,3]triazol-1-ylmethyl]-1-(6-methoxy-pyridin-3-yl)-indolizine-2-carboxylic acid amide] |
| < 300 nM | CCOC(=O)c1cn2cc(Cn3cc(C(O)(CC)C(F)(F)F)nn3)ccc2c1-c1ccc(F)cc1 (centres unmarked) [Compound 1-1, 1-(4-Fluoro-phenyl)-6-[4-(1-hydroxy-1-trifluoromethyl-propyl)-[1,2,3]-triazol-1-ylmethyl]-indolizine-2-carboxylic acid ethyl ester] |
| < 300 nM | CCC(O)(c1cn(Cc2ccc3c(-c4ccc(F)cc4)c(C(N)=O)cn3c2)nn1)C(F)(F)F (centres unmarked) [Compound 1-2, 1-(4-Fluoro-phenyl)-6-[4-(1-hydroxy-1-trifluoromethyl-propyl)-[1,2,3]triazol-1-ylmethyl]-indolizine-2-carboxylic acid amide] |
| < 300 nM | CCC(O)(c1cn(Cc2ccc3c(-c4ccc(F)cc4)c(C(N)=O)cn3c2)nn1)C(F)(F)F (single isomer, unassigned; enantiomer a) [Compound 1-5, 1-(4-Fluoro-phenyl)-6-[4-(1-hydroxy-1-trifluoromethyl-propyl)-[1,2,3]triazol-1-ylmethyl]-indolizine-2-carboxylic acid amide (Enantiomer A)] |
| < 300 nM | CCOC(=O)c1cn2cc(Cn3cc(C(O)(CC)C(F)(F)F)nn3)ccc2c1C(C)C (centres unmarked) [Compound 1-8, 6-[4-(1-Hydroxy-1-trifluoromethyl-propyl)-[1,2,3]triazol-1-ylmethyl]-1-isopropyl-indolizine-2-carboxylic acid ethyl ester] |
| < 300 nM | CCOC(=O)c1cn2cc(Cn3cc(C(O)(CC)C(F)(F)F)nn3)ccc2c1-c1ccc(OC)nc1 (centres unmarked) [Compound 1-13, 6-[4-(1-Hydroxy-1-trifluoromethyl-propyl)-[1,2,3]triazol-1-ylmethyl]-1-(6-methoxy-pyridin-3-yl)-indolizine-2-carboxylic acid ethyl ester] |

same assay, conditions: human leukocytes stimulated with calcium ionophore, 30 minutes at 37° C., LTB4 by ELISA; read-out: LTB4 HLA IC50

| IC50 | SMILES |
| --- | --- |
| < 300 nM | CCC(O)(c1cn(Cc2ccc3c(-c4ccc(F)cc4)c(C(N)=O)cn3c2)nn1)C(F)(F)F (single isomer, unassigned; enantiomer b) [Compound 1-6, 1-(4-Fluoro-phenyl)-6-[4-(1-hydroxy-1-trifluoromethyl-propyl)-[1,2,3]triazol-1-ylmethyl]-indolizine-2-carboxylic acid amide (Enantiomer B)] |
